Each structure is given as a SMILES string.

The text below walks through data of US20100183745A1, “Electrochemical Device for Biocide Treatment in Agricultural Applications” (Industrie De Nora S.P.A., priority 2007, published 2010).

This experiment relates to Erwinia amylovora. The experiment can be described thus: SEM analysis of bacterial colonies on treated pear leaves. The class given is in vivo, pear trees of white William variety. As to conditions: leaves apparently not affected by the disease; copious bacterial colonies prior to treatment; once a day during 10 days.

Excerpt: The feed vessel was loaded with a solution at neutral pH containing 1 g/l of NaCl and 2.5 g/l of KCl, and the service vessel was loaded with a tap-water stream whose flow-rate was controlled by a downstream UV probe, calibrated so as to detect the concentration of outlet hypochlorous acid by adsorption at 292 nm adjusting the same at a value comprised between 0.10 and 0.15 g/l at sprinkling stage. The outflow of electrolysis cell to the service vessel was adjusted at a flow-rate of 20 l/h.
The device regulated in this way was used for sprinkling the leaves of 50 pear trees of white William variety affected with fire blight, a disease induced by Erwinia amylovora bacterium causing stems, leaves and flowers of the plant to turn brown in localised groups. […] Each treatment was repeated once a day, during 10 subsequent days.

Regarding `O.O.O.O.O.O=S(=O)([O-])[O-].[Cu+2]` [cupric sulphate], the “bacterial colonies on leaves by SEM analysis after the treatment” value is reported as “substantial reduction of the phenomenon, still showed the signs of traces of bacterial colonies”.
